Columns and labels:
CCRF-CEM = experiment: Anticancer activity against human CCRF-CEM cells assessed as cell growth inhibition incubated for 48 hrs by SRB assay; format: functional
HL-60 [1] = experiment: Anticancer activity against human HL-60 cells assessed as cell growth inhibition incubated for 48 hrs by SRB assay; format: functional
K562 = experiment: Anticancer activity against human K562 cells assessed as cell growth inhibition incubated for 48 hrs by SRB assay; format: functional
RPMI-8226 = experiment: Anticancer activity against human RPMI-8226 cells assessed as cell growth inhibition incubated for 48 hrs by SRB assay; format: functional
A549 = experiment: Anticancer activity against human A549 cells assessed as cell growth inhibition incubated for 48 hrs by SRB assay; format: functional
HOP-62 = experiment: Anticancer activity against human HOP-62 cells assessed as cell growth inhibition incubated for 48 hrs by SRB assay; format: functional
HOP-92 = experiment: Anticancer activity against human HOP-92 cells assessed as cell growth inhibition incubated for 48 hrs by SRB assay; format: functional
HCT-116 [2] = experiment: Anticancer activity against human HCT-116 cells assessed as cell growth inhibition incubated for 48 hrs by SRB assay; format: functional
KM12 [3] = experiment: Anticancer activity against human KM12 cells assessed as cell growth inhibition incubated for 48 hrs by SRB assay; format: functional
SF-295 = experiment: Anticancer activity against human SF-295 cells assessed as cell growth inhibition incubated for 48 hrs by SRB assay; format: functional
SF-539 = experiment: Anticancer activity against human SF-539 cells assessed as cell growth inhibition incubated for 48 hrs by SRB assay; format: functional
SK-MEL-2 [4] = experiment: Anticancer activity against human SK-MEL-2 cells assessed as cell growth inhibition incubated for 48 hrs by SRB assay; format: functional
SK-MEL-28 = experiment: Anticancer activity against human SK-MEL-28 cells assessed as cell growth inhibition incubated for 48 hrs by SRB assay; format: functional
SK-MEL-5 = experiment: Anticancer activity against human SK-MEL-5 cells assessed as cell growth inhibition incubated for 48 hrs by SRB assay; format: functional
UACC-257 = experiment: Anticancer activity against human UACC-257 cells assessed as cell growth inhibition incubated for 48 hrs by SRB assay; format: functional
UACC-62 = experiment: Anticancer activity against human UACC-62 cells assessed as cell growth inhibition incubated for 48 hrs by SRB assay; format: functional
IGROV-1 [5] = experiment: Anticancer activity against human IGROV-1 cells assessed as cell growth inhibition incubated for 48 hrs by SRB assay; format: functional
SK-OV-3 [6] = experiment: Anticancer activity against human SK-OV-3 cells assessed as cell growth inhibition incubated for 48 hrs by SRB assay; format: functional
UO-31 [7] = experiment: Anticancer activity against human UO-31 cells assessed as cell growth inhibition incubated for 48 hrs by SRB assay; format: functional
Hs-578T [8] = experiment: Anticancer activity against human Hs-578T cells assessed as cell growth inhibition incubated for 48 hrs by SRB assay; format: functional
T47D [9] = experiment: Anticancer activity against human T47D cells assessed as cell growth inhibition incubated for 48 hrs by SRB assay; format: functional
MDA-MB-468 = experiment: Anticancer activity against human MDA-MB-468 cells assessed as cell growth inhibition incubated for 48 hrs by SRB assay; format: functional
HL-60 [10] = experiment: Anticancer activity against human HL-60 cells assessed as total cell growth inhibition incubated for 48 hrs by SRB assay; format: functional
NCI-H522 = experiment: Anticancer activity against human NCI-H522 cells assessed as total cell growth inhibition incubated for 48 hrs by SRB assay; format: functional
COLO 205 = experiment: Anticancer activity against human COLO 205 cells assessed as total cell growth inhibition incubated for 48 hrs by SRB assay; format: functional
HCT-116 [11] = experiment: Anticancer activity against human HCT-116 cells assessed as total cell growth inhibition incubated for 48 hrs by SRB assay; format: functional
HT-29 = experiment: Anticancer activity against human HT-29 cells assessed as total cell growth inhibition incubated for 48 hrs by SRB assay; format: functional
KM12 [12] = experiment: Anticancer activity against human KM12 cells assessed as total cell growth inhibition incubated for 48 hrs by SRB assay; format: functional
SW-620 = experiment: Anticancer activity against human SW-620 cells assessed as total cell growth inhibition incubated for 48 hrs by SRB assay; format: functional
U-251 = experiment: Anticancer activity against human U-251 cells assessed as total cell growth inhibition incubated for 48 hrs by SRB assay; format: functional
LOX IMVI = experiment: Anticancer activity against human LOX IMVI cells assessed as total cell growth inhibition incubated for 48 hrs by SRB assay; format: functional
Malme-3M = experiment: Anticancer activity against human Malme-3M cells assessed as total cell growth inhibition incubated for 48 hrs by SRB assay; format: functional
SK-MEL-2 [13] = experiment: Anticancer activity against human SK-MEL-2 cells assessed as total cell growth inhibition incubated for 48 hrs by SRB assay; format: functional
IGROV-1 [14] = experiment: Anticancer activity against human IGROV-1 cells assessed as total cell growth inhibition incubated for 48 hrs by SRB assay; format: functional
OVCAR-4 = experiment: Anticancer activity against human OVCAR-4 cells assessed as total cell growth inhibition incubated for 48 hrs by SRB assay; format: functional
SK-OV-3 [15] = experiment: Anticancer activity against human SK-OV-3 cells assessed as total cell growth inhibition incubated for 48 hrs by SRB assay; format: functional
UO-31 [16] = experiment: Anticancer activity against human UO-31 cells assessed as total cell growth inhibition incubated for 48 hrs by SRB assay; format: functional
DU-145 = experiment: Anticancer activity against human DU-145 cells assessed as total cell growth inhibition incubated for 48 hrs by SRB assay; format: functional
MDA-MB-231 = experiment: Anticancer activity against human MDA-MB-231 cells assessed as total cell growth inhibition incubated for 48 hrs by SRB assay; format: functional
Hs-578T [17] = experiment: Anticancer activity against human Hs-578T cells assessed as total cell growth inhibition incubated for 48 hrs by SRB assay; format: functional
T47D [18] = experiment: Anticancer activity against human T47D cells assessed as total cell growth inhibition incubated for 48 hrs by SRB assay; format: functional
Homo sapiens = species: Homo sapiens; experiment: Inhibition of ABL (unknown origin) at 1 uM in presence of ATP by hotspot kinase assay
[19] = target: Serine/threonine-protein kinase B-raf (Homo sapiens) (UniProt P15056); experiment: Inhibition of wild type B-RAF (unknown origin) at 1 uM in presence of ATP by hotspot kinase assay
Sequence of Serine/threonine-protein kinase B-raf (Homo sapiens) (P15056 whole entry): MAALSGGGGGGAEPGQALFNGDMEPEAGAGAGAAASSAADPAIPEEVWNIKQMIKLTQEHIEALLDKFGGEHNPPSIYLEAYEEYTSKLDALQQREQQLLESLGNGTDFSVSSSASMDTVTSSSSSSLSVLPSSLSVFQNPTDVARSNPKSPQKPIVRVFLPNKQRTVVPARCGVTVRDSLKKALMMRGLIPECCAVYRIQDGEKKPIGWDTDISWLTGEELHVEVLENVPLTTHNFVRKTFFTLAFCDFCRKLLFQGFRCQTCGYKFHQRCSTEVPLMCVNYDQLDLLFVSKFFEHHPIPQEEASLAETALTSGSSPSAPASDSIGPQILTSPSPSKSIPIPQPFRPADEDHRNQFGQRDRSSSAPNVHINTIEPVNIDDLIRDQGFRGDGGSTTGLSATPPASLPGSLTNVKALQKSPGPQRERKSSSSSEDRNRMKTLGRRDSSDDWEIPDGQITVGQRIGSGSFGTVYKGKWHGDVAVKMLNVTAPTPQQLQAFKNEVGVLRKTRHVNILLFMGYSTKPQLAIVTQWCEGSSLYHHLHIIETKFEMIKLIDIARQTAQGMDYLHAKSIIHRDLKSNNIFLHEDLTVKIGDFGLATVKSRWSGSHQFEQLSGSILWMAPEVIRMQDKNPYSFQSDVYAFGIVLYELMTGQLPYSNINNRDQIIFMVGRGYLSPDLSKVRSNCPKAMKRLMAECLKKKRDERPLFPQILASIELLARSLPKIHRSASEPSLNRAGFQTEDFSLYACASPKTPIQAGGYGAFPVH

[20] = target: Receptor-type tyrosine-protein kinase FLT3 (Homo sapiens) (UniProt P36888); experiment: Inhibition of FLT3 (unknown origin) at 1 uM in presence of ATP by hotspot kinase assay
Sequence of Receptor-type tyrosine-protein kinase FLT3 (Homo sapiens) (P36888 whole entry): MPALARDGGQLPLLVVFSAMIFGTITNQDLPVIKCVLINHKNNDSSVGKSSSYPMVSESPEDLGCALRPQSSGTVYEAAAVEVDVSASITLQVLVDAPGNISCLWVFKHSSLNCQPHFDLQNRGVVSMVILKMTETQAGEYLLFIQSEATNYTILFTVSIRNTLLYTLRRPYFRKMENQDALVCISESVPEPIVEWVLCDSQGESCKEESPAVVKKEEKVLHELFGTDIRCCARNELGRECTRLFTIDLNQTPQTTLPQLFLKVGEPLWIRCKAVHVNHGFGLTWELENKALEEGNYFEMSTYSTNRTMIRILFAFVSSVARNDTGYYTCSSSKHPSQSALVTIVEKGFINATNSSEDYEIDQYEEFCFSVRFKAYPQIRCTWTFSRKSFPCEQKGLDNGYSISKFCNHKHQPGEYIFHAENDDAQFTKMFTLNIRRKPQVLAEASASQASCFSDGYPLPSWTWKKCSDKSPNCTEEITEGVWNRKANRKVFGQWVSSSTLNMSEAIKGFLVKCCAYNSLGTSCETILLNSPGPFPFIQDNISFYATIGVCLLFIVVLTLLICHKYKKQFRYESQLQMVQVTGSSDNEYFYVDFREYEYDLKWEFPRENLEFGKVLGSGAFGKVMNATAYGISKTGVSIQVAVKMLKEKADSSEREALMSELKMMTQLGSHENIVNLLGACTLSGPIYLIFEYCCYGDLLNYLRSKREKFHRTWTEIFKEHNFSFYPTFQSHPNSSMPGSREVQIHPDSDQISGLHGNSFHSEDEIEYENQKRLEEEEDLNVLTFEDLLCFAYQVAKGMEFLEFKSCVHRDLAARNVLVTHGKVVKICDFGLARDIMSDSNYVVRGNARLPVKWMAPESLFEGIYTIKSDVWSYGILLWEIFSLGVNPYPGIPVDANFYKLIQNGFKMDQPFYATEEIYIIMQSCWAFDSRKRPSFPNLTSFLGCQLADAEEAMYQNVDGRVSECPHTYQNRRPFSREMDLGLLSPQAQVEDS

[21] = target: Dual specificity mitogen-activated protein kinase kinase 1 (Homo sapiens) (UniProt Q02750); experiment: Inhibition of MEK1 (unknown origin) at 1 uM in presence of ATP by hotspot kinase assay
Sequence of Dual specificity mitogen-activated protein kinase kinase 1 (Homo sapiens) (Q02750 whole entry): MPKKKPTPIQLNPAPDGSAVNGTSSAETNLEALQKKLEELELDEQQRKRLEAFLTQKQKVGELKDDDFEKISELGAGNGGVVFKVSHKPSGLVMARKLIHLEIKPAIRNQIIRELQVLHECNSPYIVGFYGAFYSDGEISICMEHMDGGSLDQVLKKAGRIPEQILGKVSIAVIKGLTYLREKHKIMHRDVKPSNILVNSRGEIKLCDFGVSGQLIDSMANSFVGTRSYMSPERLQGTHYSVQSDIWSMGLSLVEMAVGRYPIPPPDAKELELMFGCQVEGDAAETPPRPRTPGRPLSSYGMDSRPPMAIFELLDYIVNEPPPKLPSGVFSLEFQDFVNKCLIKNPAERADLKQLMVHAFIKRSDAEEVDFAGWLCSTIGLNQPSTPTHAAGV

[22] = target: Dual specificity mitogen-activated protein kinase kinase 2 (Homo sapiens) (UniProt P36507); experiment: Inhibition of MEK2 (unknown origin) at 1 uM in presence of ATP by hotspot kinase assay
Sequence of Dual specificity mitogen-activated protein kinase kinase 2 (Homo sapiens) (P36507 whole entry): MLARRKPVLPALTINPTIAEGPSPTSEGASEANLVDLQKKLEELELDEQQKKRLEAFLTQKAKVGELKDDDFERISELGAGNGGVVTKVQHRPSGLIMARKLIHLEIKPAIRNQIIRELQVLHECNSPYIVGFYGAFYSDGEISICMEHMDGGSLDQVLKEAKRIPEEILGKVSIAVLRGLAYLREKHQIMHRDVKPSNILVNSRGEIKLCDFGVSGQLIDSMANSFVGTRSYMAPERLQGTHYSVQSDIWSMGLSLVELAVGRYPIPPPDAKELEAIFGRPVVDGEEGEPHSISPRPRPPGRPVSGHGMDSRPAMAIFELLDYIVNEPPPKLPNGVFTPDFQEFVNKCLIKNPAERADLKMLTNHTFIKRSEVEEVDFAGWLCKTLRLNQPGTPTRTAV

[23] = test system: Serine/threonine-protein kinase B-raf (Homo sapiens), P15056 [V600E]; experiment: Inhibition of B-RAF V600E mutant (unknown origin) at 1 uM in presence of ATP by hotspot kinase assay
Sequence of Serine/threonine-protein kinase B-raf (Homo sapiens), P15056 [V600E] (P15056 whole entry V600E): as the sequence (P15056 whole entry) above, with V600E counted along it

For COc1cc2cc(Oc3ccc(NC(=O)Nc4ccc(Cl)c(C(F)(F)F)c4)cc3)c(C)nc2cc1OCCN1CCOCC1, the GI50 (CCRF-CEM) was 1.45 µM, the GI50 (HL-60 [1]) was 2.32 µM and the GI50 (K562) was 0.67 µM. For the same molecule, the GI50 (RPMI-8226) was 0.94 µM, the GI50 (A549) was 2.13 µM and the GI50 (HOP-62) was 2.05 µM. It also gave a GI50 (HOP-92) of 1.66 µM, a GI50 (HCT-116 [2]) of 10.8 µM and a GI50 (KM12 [3]) of 5.3 µM. It also gave a GI50 (SF-295) of 1.19 µM, a GI50 (SF-539) of 1.68 µM and a GI50 (SK-MEL-2 [4]) of 1.65 µM. It also gave a GI50 (SK-MEL-28) of 1.55 µM, a GI50 (SK-MEL-5) of 1.15 µM and a GI50 (UACC-257) of 1.57 µM. It also gave a GI50 (UACC-62) of 1.36 µM, a GI50 (IGROV-1 [5]) of 2.43 µM and a GI50 (SK-OV-3 [6]) of 3.34 µM. It also gave a GI50 (UO-31 [7]) of 1.4 µM, a GI50 (Hs-578T [8]) of 1.83 µM and a GI50 (T47D [9]) of 1.32 µM. For the same molecule, the GI50 (MDA-MB-468) was 0.47 µM, the TGI (HL-60 [10]) was 7.56 µM and the TGI (NCI-H522) was 4.07 µM. The TGI (COLO 205) was 3.78 µM, the TGI (HCT-116 [11]) was 10.8 µM and the TGI (HT-29) was 11.2 µM. The TGI (KM12 [12]) was 5.3 µM, the TGI (SW-620) was 5.52 µM and the TGI (U-251) was 3.9 µM. For the same molecule, the TGI (LOX IMVI) was 2.81 µM, the TGI (Malme-3M) was 3.27 µM and the TGI (SK-MEL-2 [13]) was 4.06 µM. It also gave a TGI (IGROV-1 [14]) of 23.2 µM, a TGI (OVCAR-4) of 3.41 µM and a TGI (SK-OV-3 [15]) of 17.5 µM. It also gave a TGI (UO-31 [16]) of 3.34 µM, a TGI (DU-145) of 13.8 µM and a TGI (MDA-MB-231) of 5.07 µM. For the same molecule, the TGI (Hs-578T [17]) was 5.11 µM, the TGI (T47D [18]) was 5.2 µM and the inhibition (Homo sapiens) was -5.6%. The inhibition [19] was 31.6%, the inhibition [20] was 13.2% and the inhibition [21] was 21.7%. The inhibition [22] was 17.3% and the inhibition [23] was 28.5%.
